From patent publication US20070149580A1, “USE OF PEROXISOME PROLIFERATOR ACTIVATED RECEPTOR DELTA AGONISTS FOR THE TREATMENT OF MS AND OTHER DEMYELINATING DISEASES” (AVENTIS PHARMACEUTICALS INC., priority 2004, published 2007)
pEC50: −log10 of the molar value.

What was measured:
[1] = test system: mixed cultures of human oligodendrocytes; test: Human oligodendrocyte differentiation assay (O4 immunopositive cell count); type: cell-based; settings: FIGS. 5 and 6
Experimental: • 1. Human neurospheres collected from E19.5-[…] human embryo cortex) are cultured for 2 weeks in progenitor media: […] Neurospheres are dissociated with 20 U/ml papain at 37° C. for 30-50 min. • 3. Cells are plated onto PDL coated dishes at density of 50,000-100,000 cell/well in progenitor media containing PDGF/FGF and incubated at 37° C. with 5-6% CO2. • 4. Media and growth factors are replenished every 48 hr. Human Culture Compound Treatment: • 1. 24 to 48 hr after plating remove the old medium and add compounds in fresh medium (with mitogen) • 2. Compound dose response evaluations are performed at 3-6 different concentrations (10 µM, 1 µM, 100 nM, 10 nM, 1 nM, and 0.1 nM) • 3. […] Sequential staining is performed on oligodendrocyte populations with increasing degrees of cellular differentiation, as determined by days in vitro without PDGF and FGF. • 2. […] Colormetric visualization of the BrdU immunoreactivity is developed with DAB and total cell numbers are assessed using the counter-stain hematoxylin. • 4. BrdU immunopositive cells are counted by two independent observers. Rat/Mouse/Human Culture Image Analysis: Fluorescent microscopy is used to quantitate the extent of oligodendrocyte differentiation after compound exposure. […] Manual Cell Counting: Four fields are randomly selected for each experimental condition and 500-600 cells are counted in each field. […]

human PPAR alpha = molecular target: T1, human PPAR alpha (Homo sapiens, UniProt Q07869); test: Cellular PPAR alpha GAL4/luciferase reporter assay (HEK reporter cell line); type: cell-based
T1 construct: human PPAR alpha receptor (amino acids S167-Y468); expressed in transfected cells; host or cells: HEK cells, stably transfected (pcDNA3, CMV promoter)
T1 sequence (Q07869 167-468): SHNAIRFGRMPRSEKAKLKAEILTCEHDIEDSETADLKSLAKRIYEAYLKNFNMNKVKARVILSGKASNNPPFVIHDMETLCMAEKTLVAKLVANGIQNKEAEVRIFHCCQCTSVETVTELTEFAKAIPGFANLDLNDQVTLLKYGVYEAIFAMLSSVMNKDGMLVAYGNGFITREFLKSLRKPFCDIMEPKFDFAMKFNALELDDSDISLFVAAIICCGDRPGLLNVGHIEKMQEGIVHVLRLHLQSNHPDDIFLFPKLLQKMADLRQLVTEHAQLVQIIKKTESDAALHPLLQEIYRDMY
Experimental: The potency of substances which bind to human PPAR alpha and activate it in an agonistic manner is analyzed using a stably transfected HEK cell line (HEK=human embryo kidney) which is referred to here as PPAR alpha reporter cell line. It contains two genetic elements, a luciferase reporter element (pdeltaM-GAL4-Luc-Zeo) and a PPAR alpha fusion protein (GR-GAL4-humanPPAR alpha-LBD) which mediates expression of the luciferase reporter element depending on a PPAR alpha ligand. The stably and constitutively expressed fusion protein GR-GAL4-humanPPAR alpha-LBD binds in the cell nucleus of the PPAR alpha reporter cell line via the GAL4 protein portion to the GAL4 DNA binding motifs 5′-upstream of the luciferase reporter element which is stably integrated in the genome of the cell line. […] PPAR alpha ligands bind and activate the PPAR alpha fusion protein and thereby stimulate the expression of the luciferase reporter gene.
The finished PPAR alpha reporter cell line which contains a luciferase reporter element and constitutively expresses the PPAR alpha fusion protein (GR-GAL4-human PPAR alpha-LBD) was isolated by selection with zeocin (0.5 mg/ml) and G418 (0.5 mg/ml).

With `Cc1cc(SCc2sc(-c3ccc(C(F)(F)F)cc3)nc2C)ccc1OCC(=O)O` [Compound 1] as the compound, how does the “number of O4 immunopositive cells” value [1] read?
Its value is “increase”.

With `CCCc1c(OCCCOc2ccc(OCC(=O)O)cc2)ccc(C(C)=O)c1O` [Compound 2] as the compound, how does the pEC50 (human PPAR alpha) read?
Its pEC50 is 5.96.

And the “number of O4 immunopositive cells” value [1]?
The value was “increase”.
